Assay results: patent US6313179A, “Treatment of hyperproliferative skin disorders with C18 to C20 aliphatic alcohols” (Avanir Pharmaceuticals, priority 1998, dated 2001)
Entries after “also recorded” stand apart in the source; their conditions may differ. Read-outs that look alike come from different tables or passages of the source.

What was measured:
keloid scarring = assay: Treatment of keloid scar formation with n-docosanol cream, case report (Example 4); assay type: in vivo, Human
From the text: The patient presented with a one year history of progressive bilateral facial keloid scarring. The precise cause of injury is unknown, but appears to have been initiated as a result of work-relatedexposure to some aerosolized irritant at a high rise building construction site. During the time of exposure, the patient was working in an area in which noxious fumes were known to exist, and they were wearing a filtration face mask for protection against inhalation exposure. Since the resulting wounds occurred in a pattern which appeared to outline the edges of the protective face mask, the injury may reflect some type of chemical burn resulting from concentration of aerosolized irritants with perspiration at the edge of the face mask.
During the ensuing year after onset of this process, the patient was seen on several occasions in the dermatology division of a major local hospital and attempts were made to arrest the process by intradermal steroid injections at the affected sites. This treatment approach was ineffective. When the patient was first seen by the inventors, they had extensive and disfiguring bilateral scars on the face and a large ulcerated lesion at the lower end of the process on the right side of the face. There was keloid scarring on both the right and left sides of the face manifested as typical "ropey and cord-like" tissue deposition and depigmentation. The right side of the face was noticeably swollen presumably as a result of the active ulceration process at the lower end of the lesions. The patient complained of pain along both areas of scarring, particularly at the more distal ends of the lesions. They admitted to social withdrawal as a result of embarrassment about their appearance and extreme frustration about the apparent futility of obtaining any help to arrest or reverse the process.
After thoroughly explaining the experimental aspects of the therapeutic regimen, the patient volunteered to enter a study in which cream containing either 15% or 10% n-docosanol as active ingredient was to be applied to the affected areas. These topical cream formulations are described in U.S. Pat. No. 5,534,554, the entire contents of which are incorporated by reference. Initially, applications of cream containing 15% n-docosanol were made three times daily. This cream formulation contained, in addition to 15% n-docosanol, […], 5.0% sucrose cocoate, 8.0% mineral oil NF, 5.0% propylene glycol USP, 2-ethyl-1,3-hexanediol and 58.3% purified water (all weight percent). After one month on this regimen, the patient was changed to cream containing 10% n-docosanol and the application frequency was reduced to two times daily, after showering in the morning and just before bed in the evening. This cream composition contained, in addition to 10% n-docosanol,5.0% sucrose stearates, 8.0% mineral oil NF, 5.0% propylene glycol USP, 2.7% benzyl alcohol NF and 69.3% purified water.

[1] = test system: Vero (normal African green monkey kidney; ATCC CCL 81) cells; assay: Proliferation study, Vero cells (Example 3); assay type: cell-based; details: 3 mM
Experimental: The following experiment examined the effect of n-docosanol on cell proliferation and quantitation of n-[1-^14 C]docosanol binding to keloid, Vero (normal African green monkey kidney; ATCC CCL 81) and normal skin fibroblast (ATCC CRL 1900) cells.
(§1) Human keloid fibroblasts, normal control skin fibroblasts and Vero cells were obtained from ATCC. n-Docosanol (30 mM) was suspended in Pluronic F-68 (1.2 mM) as described previously (Katz et al., ibid). A vehicle control was prepared using the same procedure except for the omission of n-docosanol. Radiolabeled n-[1-^14 C] docosanol suspension was prepared as described by Katz et al. (ibid.). Cells were resuspended in 1.2×10^6 cells/ml in DMEM supplemented with 10% fetal calf serum, sodium pyruvate, L-glutamine and penicillin-streptomycin. Cell suspension (0.5 ml) was added to each 35 mm well containing 1.3 ml media, followed by addition of 0.2 ml radiolabeled n-docosanol suspension (final n-docosanol concentration=3 mM). After 24 hours at 37° C. in humidified 10% CO2, the suspension was removed, wells were washed extensively with saline and cells were solubilized for scintillation counting by incubation with 0.5 ml trypsin for 15 min at 37° C. Solubilized cells were counted in a Beckman LS6000 scintillation counter. Samples were corrected for nonspecific binding to plates by subtracting values obtained in control wells lacking cells. To determine cell number, duplicate plates were treated with non-radiolabeled n-docosanol or control suspension at the same concentration or were left untreated. The number of viable cells was determined by trypan blue staining.

keloid cells = assay: Comparison of n-docosanol effect between keloid and normal cells: keloid cells (Example 2); assay type: cell-based, Human; details: 15 mM; for inhibition at 15000 µM / activity at 15000 µM: Homo sapiens; for inhibition at 15000 µM: read-out: inhibition of number of keloid cells per well; for activity at 15000 µM / cells/well: Table 2; for activity at 15000 µM: compared to cells incubated with no addition, read-out: % control
Experimental: (§2) Human keloid fibroblasts were obtained from the American Type Culture Collection (Rockville, Md.) (CRL 1762). n-Docosanol (300 mM) was suspended in the nonionic surfactant Pluronic F-68 (12 mM) as described previously (Katz et al., Proc. Natl. Acad. Sci. U.S.A., 88:10825-10829, 1991, hereby incorporated by reference). A vehicle control was prepared using the same procedure except n-docosanol was omitted. Keloid cells (2.7×10^4per well) were added to 16 mm wells containing DMEM supplemented with 10% fetal calf serum (FCS), sodium pyruvate, L-glutamine and penicillin/streptomycin. n-Docosanol (15 mM) or the corresponding Pluronic F-68 control (0.6 mM) was added (total volume=2.0 ml). Cells were harvested after incubation for 72 and 168 hours at 37° C. in a humidified 10% CO2 incubator. The number of viable cells was determined by trypan blue staining.
Human fetal lung cells (HFL; ATCC CCL 153) and keloid cells (5×10^4 cells/well) were separately added to 16 mm wells and treated as described in Example 1. The results are shown in Tables 2 (keloid cells) and 3 (human fetal lung cells).

Human keloid fibroblasts [2] = assay: Antiproliferative activity of n-docosanol in keloid cells (Example 1, viable cell count); assay type: cell-based; details: 15 mM; for inhibition of keloid cell growth in vitro (in words): cultured keloid / hypertrophic fibroblasts; for activity at 15000 µM / cells/well: Table 1; for activity at 15000 µM: compared to cells incubated with no addition, read-out: % control
Experimental: as §2

Human keloid fibroblasts [3] = assay: Proliferation study, keloid cells (Example 3); assay type: cell-based; details: 3 mM
Experimental: as §1

[4] = 15% cream three times daily, within 48 hours
[5] = 15% cream, by the end of the second week, patient perception

Question: How did the “extent of elevation of the keloid scarring” value (keloid scarring; 15% cream one month, then 10% cream twice daily, three months) turn out when `CCCCCCCCCCCCCCCCCCCCCCO` [n-docosanol] was run?
Answer: clear reduction in the extent of elevation of the keloid scarring

Question: And the “pain around the lesions” value (keloid scarring; 15% cream three times daily, almost immediately after onset of therapy)?
Answer: significant diminution in pain

Question: And the “granulation within the ulcerated lesion” value (keloid scarring; [4])?
Answer: onset of granulation

Question: What about the “swelling on the right side of the face” value (keloid scarring; [4]) of the same compound?
Answer: significant reduction in swelling

Question: And the “suppleness of the overlying dermis” value (keloid scarring; [5])?
Answer: greater suppleness of the overlying dermis

Question: And the “tightness and thickness of the keloids” value (keloid scarring; [5])?
Answer: diminution in tightness and thickness of the keloids

Question: And the “pigmentation in the affected areas” value (keloid scarring; 15% then 10% cream, one year)?
Answer: almost complete return to normal pigmentation

Question: And the “ropey and cord-like elevations” value (keloid scarring; 15% then 10% cream, one year)?
Answer: a flattening of the previously ropey and cord-like elevations

Question: And the scar tissue (keloid scarring; 15% then 10% cream, one year)?
Answer: significant reduction of scar tissue

Question: And the skin pigmentation (keloid scarring; 15% then 10% cream, three months)?
Answer: considerable improvement in skin pigmentation

Question: What about the “scar defect at the site of the healed ulcerated lesion” value (keloid scarring; 15% then 10% cream, three months, compared to right temple line scar) of the same compound?
Answer: much smaller scar defect

Question: And the adverse reactions (keloid scarring; during the course of treatment)?
Answer: no adverse reactions

Question: And the “keloid formation in a patient (in words)” value (keloid scarring; patient for whom other treatments had not been successful)?
Answer: significantly reduced hyperproliferative keloid formation

Question: What about the “number of Vero cells (in words)” value ([1]; one day incubation) of the same compound?
Answer: not decreased

Question: What about the activity at 3000 µM ([1]; Chlorocebus sabaeus, Table 4, Vero, 24 hours, compared to cells incubated with no addition, read-out: % ctrl) of the same compound?
Answer: 151%

Question: And the “No. cells” value ([1]; Table 4, Vero, 24 hours)?
Answer: 5.9 × 10^5 cells

Question: What about the inhibition at 15000 µM (keloid cells; 72 hours) of the same compound?
Answer: 36%

Question: What about the inhibition at 15000 µM (keloid cells; 168 hours) of the same compound?
Answer: 85%

Question: And the activity at 15000 µM (keloid cells; 72 hours)?
Answer: 64%

Question: And the activity at 15000 µM (keloid cells; 168 hours)?
Answer: 15%

Question: What about the cells/well (keloid cells; 72 hours) of the same compound?
Answer: 1.1 × 10^4 cells/well

Question: What about the cells/well (keloid cells; 168 hours) of the same compound?
Answer: 0.4 × 10^4 cells/well

Question: What about the “inhibition of keloid cell growth in vitro (in words)” value (Human keloid fibroblasts [2]) of the same compound?
Answer: favored by low cell densities and longer incubation times and is concentration-dependent; also recorded: dramatic inhibition of keloid cell growth

Question: And the “inhibition of keloid cell growth in vitro (in words)” value (Human keloid fibroblasts [2]; listed as n-Docosanol)?
Answer: exhibits antiproliferative activity against cultured hypertrophic fibroblasts

Question: And the inhibition at 15000 µM (Human keloid fibroblasts [2]; Homo sapiens, Fibroblast, 168 hours, compared to no addition, read-out: inhibition of cell growth)?
Answer: 76%

Question: And the activity at 15000 µM (Human keloid fibroblasts [2]; Homo sapiens, Fibroblast, 72 hours)?
Answer: 103%

Question: What about the activity at 15000 µM (Human keloid fibroblasts [2]; Homo sapiens, Fibroblast, 168 hours) of the same compound?
Answer: 24%

Question: What about the cells/well (Human keloid fibroblasts [2]; 72 hours) of the same compound?
Answer: 3.3 × 10^4 cells/well

Question: What about the cells/well (Human keloid fibroblasts [2]; 168 hours) of the same compound?
Answer: 1.0 × 10^4 cells/well

Question: What about the inhibition at 3000 µM (Human keloid fibroblasts [3]; Homo sapiens, Fibroblast, 24 h, one day incubation, read-out: reduction of number of keloid cells) of the same compound?
Answer: 57%

Question: And the activity at 3000 µM (Human keloid fibroblasts [3]; Homo sapiens, Fibroblast, Table 4, Keloid, 24 hours, compared to cells incubated with no addition, read-out: % ctrl)?
Answer: 43%

Question: And the No. cells (Human keloid fibroblasts [3]; Table 4, Keloid, 24 hours)?
Answer: 1.6 × 10^5 cells
